Experimental data from patent US20080227134A9, “Glyoxylate assays and their use of inden tifying natural amidated compounds” (priority 2005, published 2008).

Columns and labels:
Glyoxal oxidase [1] = target: T1, Glyoxal oxidase (Phanerodontia chrysosporium, UniProt Q01772); settings: cited from earlier work
T1 sequence (Q01772 23-559): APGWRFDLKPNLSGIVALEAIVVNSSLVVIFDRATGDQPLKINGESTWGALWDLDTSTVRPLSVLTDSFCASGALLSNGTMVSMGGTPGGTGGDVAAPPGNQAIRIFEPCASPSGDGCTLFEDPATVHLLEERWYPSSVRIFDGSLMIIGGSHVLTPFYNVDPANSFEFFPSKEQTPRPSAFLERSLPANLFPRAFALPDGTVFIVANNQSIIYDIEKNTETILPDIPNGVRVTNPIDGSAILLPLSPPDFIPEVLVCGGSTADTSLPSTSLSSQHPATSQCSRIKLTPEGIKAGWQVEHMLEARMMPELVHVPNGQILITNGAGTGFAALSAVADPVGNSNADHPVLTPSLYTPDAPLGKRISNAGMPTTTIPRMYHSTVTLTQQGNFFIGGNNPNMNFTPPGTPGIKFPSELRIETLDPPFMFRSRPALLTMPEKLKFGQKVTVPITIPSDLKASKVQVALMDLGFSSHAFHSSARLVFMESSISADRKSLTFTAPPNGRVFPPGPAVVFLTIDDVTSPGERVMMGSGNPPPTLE

PAM = target: T2, PAM (Rattus norvegicus, UniProt P14925); experiment: PAM dependent conversion of N-dansyl-Tyr-Val-Gly verified by RP-HPLC; assay type: biochemical; settings: 20 μM substrate, PAM 15 U/L, 1.0 mM catechol, one hour at 37° C.
T2 construct: Unigene Labs, Inc. (Fairfield, N.J.), gift
T2 sequence (P14925 36-715 isoform P14925-2 limits assumed): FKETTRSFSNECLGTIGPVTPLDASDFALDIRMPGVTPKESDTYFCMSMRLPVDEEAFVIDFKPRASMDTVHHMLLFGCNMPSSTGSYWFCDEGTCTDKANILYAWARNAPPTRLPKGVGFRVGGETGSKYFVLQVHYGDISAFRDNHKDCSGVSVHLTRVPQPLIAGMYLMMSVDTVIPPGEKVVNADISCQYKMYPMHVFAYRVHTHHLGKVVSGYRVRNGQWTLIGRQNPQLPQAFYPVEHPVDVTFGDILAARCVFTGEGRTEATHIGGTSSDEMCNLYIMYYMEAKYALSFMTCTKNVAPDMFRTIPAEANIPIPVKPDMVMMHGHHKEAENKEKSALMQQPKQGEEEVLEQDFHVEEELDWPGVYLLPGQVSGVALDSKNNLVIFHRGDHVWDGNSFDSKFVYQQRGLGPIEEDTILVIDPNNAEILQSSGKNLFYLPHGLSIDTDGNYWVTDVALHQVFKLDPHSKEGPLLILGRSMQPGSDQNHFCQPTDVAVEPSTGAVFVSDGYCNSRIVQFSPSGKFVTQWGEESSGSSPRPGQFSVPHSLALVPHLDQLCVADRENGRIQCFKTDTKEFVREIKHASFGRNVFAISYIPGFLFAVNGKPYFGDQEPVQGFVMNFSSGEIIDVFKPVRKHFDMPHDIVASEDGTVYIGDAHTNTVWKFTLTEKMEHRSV
Method: Glyoxylate production was initiated by the addition of PAM (15 U/L) to a solution containing 40 mM MES/NaOH pH 6.0, 10 U/ml HRP, 1.0 mM catechol, 0.5 μM CU(SO4), 20 μM dansyl-Tyr-Val-Gly, the reaction proceeded for one hour at 37° C. […] The complete PAM dependent conversion of 20 μM N-dansyl-Tyr-Val-Gly to N-dansyl-Tyr-Val-NH2 and glyoxylate was verified by RP-HPLC to quantify the exact concentrations of [dansyl-Tyr-Val-NH2] and [glyoxylate] (100% conversion, 20 μM N-dansyl-Tyr-Val-NH2 and glyoxylate). Aliquots of the PAM produced glyoxylate pertaining to variable concentrations (0.3, 0.7, 1.6, and 2.3, μM) of were utilized for analysis by the GLOX assay. Aliquots of glyoxylate were added to a solution of 50 mM sodium phosphate pH 6.0, 50 μM Amplex red, at HRP (1 U/ml) and a final concentration of 0.4 mg/ml GLOX. All samples were incubated for 1 hour at 37° C. for one hour.
Glyoxylate production was initiated by the addition of PAM (15 U/L) to a solution containing 40 mM MES/NaOH pH 6.0, 10 U/ml HRP, 1.0 mM catechol, 0.5 μM Cu(SO4), 20 μM dansyl-Tyr-Val-Gly, the reaction proceeded for one hour at 37° C. The PAM dependent conversion of 20 μM N-dansyl-Tyr-Val-Gly to N-dansyl-Tyr-Val-NH2 and glyoxylate was verified to be 100% by a RP-HPLC assay, to ensure a 20 μM PAM produced glyoxylate solution. […]

[2] = target: T3, peptidylglycine α-amidating monooxygenase (Rattus norvegicus, UniProt P14925); experiment: PAM treatment of hippurate: benzamide by HPLC, glyoxylate by malate synthase/malate dehydrogenase/MTS/PMS system; assay type: biochemical; settings: for Benzamide Produced / Glyoxylate Produced: PAM added to 2.5 mM hippurate
T3 sequence (P14925 36-976): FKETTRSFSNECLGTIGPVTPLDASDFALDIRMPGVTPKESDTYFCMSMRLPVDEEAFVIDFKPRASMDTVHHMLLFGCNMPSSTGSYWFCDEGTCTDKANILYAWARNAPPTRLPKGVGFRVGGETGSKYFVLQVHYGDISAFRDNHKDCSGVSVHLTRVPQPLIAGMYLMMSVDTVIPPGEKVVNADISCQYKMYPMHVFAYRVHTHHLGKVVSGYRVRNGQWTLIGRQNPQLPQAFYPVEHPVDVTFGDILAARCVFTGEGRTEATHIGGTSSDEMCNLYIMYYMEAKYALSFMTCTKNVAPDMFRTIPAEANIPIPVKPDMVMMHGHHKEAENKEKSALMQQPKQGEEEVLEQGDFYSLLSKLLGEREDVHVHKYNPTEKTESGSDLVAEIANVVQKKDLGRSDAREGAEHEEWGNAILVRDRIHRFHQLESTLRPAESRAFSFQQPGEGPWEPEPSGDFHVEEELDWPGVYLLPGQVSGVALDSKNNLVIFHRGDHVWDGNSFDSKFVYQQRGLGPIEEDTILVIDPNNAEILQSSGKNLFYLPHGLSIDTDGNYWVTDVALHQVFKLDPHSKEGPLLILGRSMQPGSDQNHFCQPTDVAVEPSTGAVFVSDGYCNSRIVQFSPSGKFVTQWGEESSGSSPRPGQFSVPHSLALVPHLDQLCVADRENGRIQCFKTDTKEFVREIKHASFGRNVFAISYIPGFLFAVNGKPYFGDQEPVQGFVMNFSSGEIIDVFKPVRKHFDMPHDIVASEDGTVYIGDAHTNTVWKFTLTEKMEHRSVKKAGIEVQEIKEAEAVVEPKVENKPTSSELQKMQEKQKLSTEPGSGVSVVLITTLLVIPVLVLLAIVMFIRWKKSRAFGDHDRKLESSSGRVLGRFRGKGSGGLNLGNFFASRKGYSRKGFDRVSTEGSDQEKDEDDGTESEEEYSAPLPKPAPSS
Method: Hippurate (N-benzoylglycine, C6H5-CO—NH—CH2-COO^−) is a PAM substrate that is oxidatively converted to benzamide and glyoxylate. […] At 10 min intervals over a period of 110 minutes, 45 μl aliquots may be removed and added to 10 μl of 6% (v/v) trifluoroacetic acid to terminate the reaction. Percent conversion of hippurate to benzamide may be determined at each time interval by reverse-phase HPLC.
Approximately 20 nanomoles of glyoxylate may be removed from the HPLC vials and added to a 0.9 ml solution that contain necessary components for the glyoxylate assay excluding the enzyme couple and MTS/PMS. Ascorbate may be eliminated from all samples, prior to glyoxylate determination, with 10 min incubation in the presence of 12 units of ascorbate oxidase at 37° C. Following ascorbate removal the addition of 100 μl enzyme couple and PMS/MTS may bring the assay to a final volume of 1 ml which contains 100 mM TEA-HC1 pH 7.8, 10 MM MgCl2, 400 μM acetyl-CoA, 500 μM NAD^+, 6 U/ml malate synthase, 6 U/ml malate dehydrogenase, and 12 units ascorbate oxidase. The glyoxylate concentration may be determined by measuring the absorbance increase at 490 nm after incubation at 37° C. for 1 hr. A control for this experiment was performed at each time point, and contained no hippurate.

Glyoxal oxidase [3] = target: T1, Glyoxal oxidase; experiment: Effect of PAM reductant on glyoxal oxidase activity and glyoxylate assays; assay type: biochemical; parameters: Dr. James Whittaker, OGI School of Science and Engineering (gift); settings: reductant for PAM catalysis
Source text: Application of the assays of the invention to the quantification of PAM-produced glyoxylate required two alterations of the PAM assay, as well as one change to the common glycolate oxidase assay which has previously been mentioned. Without these specific alterations the assays would be rendered non-stoichiometric and produce anomalous data. First, to address the changes to the PAM assay, a new method for enzyme protection due to hydroxyl radical formation produced during catalysis was necessary as the use of catalase has previously been the method of choice. Catalase catalyzes the disproportionate reaction of H2O2 to H2O and O2, and removal of hydrogen peroxide is detrimental to the assay methods. […] Second, a reducing agent is necessary for the PAM catalysis. Ascorbate is frequently used in the art for this purpose. […] As an alternative to the foregoing, ascorbate may be used in the PAM-catalyzed reaction, but later removed (e.g., by deactivating with ascorbate oxidase) prior to assaying for glyoxylate.

## CC(=O)C=O [Methylglyoxal]
Glyoxal oxidase [1]
  Km: 640 µM

## N-dansyl-Tyr-Val-Gly
PAM
  PAM dependent conversion to N-dansyl-Tyr-Val-NH2 and glyoxylate: 100%

## O=CC(=O)O [glyoxylic acid]
Glyoxal oxidase [1]
  Km: 2500 µM
  kcat/KM ratio, activity compared to methylglyoxal: 12.4%

## O=C(O)CNC(=O)c1ccccc1 [hippurate, N-benzoylglycine]
[2]; Time 40
  [Glyoxylate]/[Benzamide]: 1.2
  Benzamide Produced: 0.58 mM
  Glyoxylate Produced: 0.69 mM
[2]; Time 50
  [Glyoxylate]/[Benzamide]: 0.96
  Benzamide Produced: 0.70 mM
  Glyoxylate Produced: 0.67 mM
[2]; Time 60
  [Glyoxylate]/[Benzamide]: 0.89
  Benzamide Produced: 0.80 mM
  Glyoxylate Produced: 0.71 mM
[2]; Time 70
  [Glyoxylate]/[Benzamide]: 0.83
  Benzamide Produced: 0.90 mM
  Glyoxylate Produced: 0.75 mM
[2]; Time 80
  [Glyoxylate]/[Benzamide]: 0.79
  Benzamide Produced: 0.98 mM
  Glyoxylate Produced: 0.77 mM
[2]; Time 90
  [Glyoxylate]/[Benzamide]: 1.2
  Benzamide Produced: 1.1 mM
  Glyoxylate Produced: 1.3 mM
[2]; Time 100
  [Glyoxylate]/[Benzamide]: 1.1
  Benzamide Produced: 1.2 mM
  Glyoxylate Produced: 1.3 mM
[2]; Time 110
  [Glyoxylate]/[Benzamide]: 1.0
  Benzamide Produced: 1.3 mM
  Glyoxylate Produced: 1.3 mM

## Oc1ccccc1O [catechol]
Glyoxal oxidase [3]
  inhibition of the enzyme activity of glyoxal oxidase and of the spectrophotometric, fluorescent and luminescent assays: not an inhibitor
